This note sets out measurements from US20260015364A1, “PIPERAZINE BRIDGE-SUBSTITUTED HETEROCYCLIC PYRIMIDINE COMPOUND” (MEDSHINE DISCOVERY INC., priority 2022, published 2026).

The test system of the assay is GP2D cell subcutaneously transplanted tumors. As to the kind of experiment: In vivo pharmacodynamic experiment of GP2D tumor model. Also noted: species or system Balb/c Nude mice. As to conditions: p.o., BID, 28 days of administration. As to the method: In vivo pharmacodynamics of GP2D cell subcutaneously transplanted tumors in Balb/c Nude mice model with human colon cancer
Cell culture: Human colon cancer GP2D cells were cultured in monolayer in vitro. The culture conditions were DMEM/F12 medium+20% fetal bovine serum, and cultured in a 37° C., 5% carbon dioxide incubator. Routine digestion with trypsin-EDTA was performed twice a week for passaging. When the cell saturation reached 80% to 90% and the required quantity was reached, the cells were harvested, counted, resuspended in an appropriate amount of PBS, and mixed with matrigel at a ratio of 1:1 to obtain a cell suspension with a cell density of 25×10^6 cells/mL.
Cell inoculation: 0.2 mL (5×10^6 cells/mouse) of GP2D cells (added with Matrigel with a volume ratio of 1:1) were subcutaneously inoculated into the right back of each mouse. […]
Tumor diameters were measured twice a week with a vernier caliper. […]
The tumor inhibitory efficacy of the compound was evaluated by TGI (%) or relative tumor proliferation rate T/C (%). […] The relative tumor volume (RTV) was calculated based on the results of tumor measurements. The calculation formula is RTV=Vt/V0, where V0 is the average tumor volume measured at the beginning of administration in groups (i.e., D0), and Vt is the average tumor volume measured at a certain measurement. […]

In the case of `C#Cc1c(F)ccc2cc(N)cc(-c3ncc4c(N5CC6CCC(C5)N6)nc(OC[C@@]56CC(=C)CN5C[C@@H]5C[C@@H]56)nc4c3F)c12` (single isomer, unassigned) [Compound 3], the TGI turned out to be 85.57% (30 mpk) and 98.95% (100 mpk).
